# Reference: patent US20210380547A1, “UREA DERIVATIVES FOR TREATING AND/OR PREVENTING CANCER” (CENTRE NATIONAL DE LA RECHERCHE SCIENTIFIQUE, priority 2018, published 2021)
# Like-named read-outs stand apart in the source and are kept apart here.
# Experiments:
# [1] = test system: MDA-MB-231; assay: XTT cell viability assay, MDA-MB-231; format: cell-based; conditions: Homo sapiens, XTT assay (48 h), standard deviation of 10%, read-out: EC50 (μM) Breast MDA-MB-231
# Description: (§1) Fifty microliters of sodium 3′-[1-phenylaminocarbonyl)-3,4-tetrazolium]-bis(4-methoxy-6-nitro) benzene sulfonic acid hydrate (XTT) reagent was added to each well. The assay is based on the cleavage of the yellow tetrazolium salt XTT to form an orange formazan dye by metabolically active cells. The absorbance of the formazan product, reflecting cell viability, was measured at 490 nm. Each assay was performed in quadruplicate.
# (§2) Compounds #1-#14 have been assayed as potential anti-proliferative agents against a panel of human breast head and neck, and kidney tumor cells and hematological malignancies, selected on the basis of their aggressiveness (e.g. incurable triple-negative breast cancer cells: MDA-MB-231; kidney ccRCC cells: RCC4, A498 and 786-O and 786R; head and neck cancer cells: CAL33, CAL33RR, CAL27, and CAL27RR; acute myeloid cell lines: OCI-AML2, OCI-AML3, MolM13, and MolM14; myelodysplastic cell line: SM1; and chronic myeloid cell line: CML). All these cell lines share as common denominator the expression of CXCR1 and CXCR2. The EC50 values have been measured by a XTT colorimetric assay, and compared to those of SB-225002, used as a reference; the results are listed in Table 1.
# [2] = test system: A498; assay: XTT cell viability assay, A498; format: cell-based, human; conditions: XTT assay (48 h), standard deviation of 10%, read-out: EC50 (μM) Kidney A498
# Description: as §1, §2
# [3] = test system: RCC4; assay: XTT cell viability assay, RCC4; format: cell-based; conditions: Homo sapiens, XTT assay (48 h), standard deviation of 10%, read-out: EC50 (μM) Kidney RCC4
# Description: as §1, §2
# [4] = test system: 786-O; assay: XTT cell viability assay, 786-O; format: cell-based, human; conditions: Homo sapiens, 786-0; XTT assay (48 h); standard deviation of 10%; read-out: EC50 (μM) Kidney 786-O
# Description: (§3) A, B: Naive (786-O, A), and sunitinib-resistant (786-R, B) 786-O cells, were treated with compound #1 or sunitinib (1 to 10 μM) for 48 hr. Cell viability was measured by XTT assays;
# (§4) D, E: 786-O (D), 786-R (E), were treated with 2.5 μM compound #1 or 2.5 μM sunitinib for 24 h to 96 h. The cells metabolism was measured by XTT assay;
# as §1, §2
# [5] = test system: OCI-AML2; assay: XTT cell viability assay, OCI-AML2; format: cell-based, human; conditions: XTT assay (48 h), standard deviation of 10%, read-out: EC50 (μM) AML OCI-AML2
# Description: as §1, §2
# [6] = test system: OCI-AML3; assay: XTT cell viability assay, OCI-AML3; format: cell-based, human; conditions: XTT assay (48 h), standard deviation of 10%
# Description: as §1, §2
# [7] = test system: MolM13; assay: XTT cell viability assay, MolM13; format: cell-based, human; conditions: XTT assay (48 h), standard deviation of 10%, read-out: EC50 (μM) AML MolM13
# Description: as §1, §2
# [8] = test system: MolM14; assay: XTT cell viability assay, MolM14; format: cell-based, human; conditions: XTT assay (48 h), standard deviation of 10%, read-out: EC50 (μM) AML MolM14
# Description: as §1, §2
# [9] = test system: SKM1; assay: XTT cell viability assay, SKM1; format: cell-based, human; conditions: XTT assay (48 h), standard deviation of 10%, read-out: EC50 (μM) MDS SKM1
# Description: as §1, §2
# [10] = test system: K562; assay: XTT cell viability assay, K562; format: cell-based, human; conditions: XTT assay (48 h), standard deviation of 10%, read-out: EC50 (μM) CML K562
# Description: as §1, §2
# [11] = test system: 786R; assay: XTT cell viability assay, 786R (sunitinib-resistant); format: cell-based, human; conditions: Homo sapiens, 48 h, XTT assay (48 h); sunitinib-resistant; standard deviation of 10%; read-out: EC50 (μM) Kidney 786R
# Description: as §3, §4, §1, §2
# [12] = test system: CAL33; assay: XTT cell viability assay, CAL33; format: cell-based; conditions: Homo sapiens, CAL-33; XTT assay (48 h); standard deviation of 10%; read-out: EC50 (μM) Head and Neck CAL33
# Description: as §1, §2
# [13] = test system: CAL33RR; assay: XTT cell viability assay, CAL33RR; format: cell-based; conditions: Homo sapiens, light or radiation study; XTT assay (48 h); resistant to irradiation and cisplatin; standard deviation of 10%; read-out: EC50 (μM) Head and Neck CAL33RR
# Description: as §1, §2
# [14] = test system: CAL27; assay: XTT cell viability assay, CAL27; format: cell-based, human; conditions: Homo sapiens, CAL-27, 48 h, XTT assay (48 h); standard deviation of 10%; read-out: EC50 (μM) Head and Neck CAL27
# Description: (§5) A, B: Naive (Cal27, A), and cisplatine-resistant (Cal27R, B) Cal27 cells, were treated with compound #1 or cisplatine (1 to 10 μM) for 48 hr. Cell viability was measured by XTT assays;
# (§6) C, D: Cal27 (C), cal27R (D), were treated with 2.5 μM compound #1, 2.5 μM cisplatin for 24 h to 96 h. The metabolism of cells was measured by XTT assay.
# as §1, §2
# [15] = test system: CAL27RR; assay: XTT cell viability assay, CAL27RR (cisplatin-resistant); format: cell-based, human; conditions: Homo sapiens, light or radiation study; XTT assay (48 h); resistant to irradiation and cisplatin; standard deviation of 10%; read-out: EC50 (μM) Head and Neck CAL27RR
# Description: as §5, §6, §1, §2
EC50 [1] [µM],EC50 [4] [µM],"EC50 ([5]; Homo sapiens, OCI-AML2) [µM]","EC50 ([6]; Homo sapiens, OCI-AML-3) [µM]","EC50 ([7]; Homo sapiens, MOLM-13) [µM]","EC50 ([8]; Homo sapiens, MOLM-14) [µM]","EC50 ([9]; Homo sapiens, SKM-1) [µM]","EC50 ([10]; Homo sapiens, K562) [µM]",SMILES,"EC50 ([2]; Homo sapiens, A498) [µM]",EC50 [3] [µM],EC50 [11] [µM],EC50 [12] [µM],EC50 [13] [µM],EC50 [14] [µM],further results
> 25,15,> 25,10,15,10,25,25,"Cc1ccc2nc(NC(=O)Nc3ccccc3Cl)sc2c1 [Compound #4, 1-(2-chlorophenyl)-3-(6-methylbenzo[d]thiazol-2-yl)urea]",15,> 25,–,–,–,–,–
12,20,18,25,25,20,25,10,"O=C(Nc1ccccc1)Nc1nc2ccccc2[nH]1 [Compound #5, 1-(1H-benzo[d]imidazol-2-yl)-3-phenylurea]",10,25,–,–,–,–,–
> 25,> 25,> 25,> 25,> 25,> 25,> 25,> 25,"O=C(Nc1ccccc1)Nc1nc2ccccc2o1 [Compound #5-1, 1-(benzo[d]oxazol-2-yl)-3-phenylurea, reference compound]",> 25,> 25,–,–,–,–,–
20,20,20,22,> 25,20,> 25,12,"O=C(Nc1ccc(Cl)cc1)Nc1nc2ccccc2[nH]1 [Compound #6, 1-(1H-benzo[d]imidazol-2-yl)-3-(4-chlorophenyl)urea]",9,20,–,–,–,–,–
> 25,> 25,10,> 25,> 25,> 25,> 25,> 25,"O=C(Nc1nc2ccccc2s1)Nc1ccccc1Cl [Compound #7, 1-(benzo[d]thiazol-2-yl)-3-(2-chlorophenyl)urea]",> 25,25,–,–,–,–,–
> 25,> 25,> 25,> 25,> 25,> 25,> 25,25,"O=C(Nc1cccc(Cl)c1)Nc1nc2ccccc2s1 [Compound #8, 1-(benzo[d]thiazol-2-yl)-3-(3-chlorophenyl)urea]",> 25,20,–,–,–,–,–
> 25,> 25,> 25,> 25,> 25,> 25,> 25,25,"O=C(Nc1ccc(Cl)cc1)Nc1nc2ccccc2s1 [Compound #9, 1-(benzo[d]thiazol-2-yl)-3-(4-chlorophenyl)urea]",25,20,–,–,–,–,–
> 25,> 25,> 25,> 25,> 25,> 25,> 25,25,"COc1ccc(NC(=O)Nc2nc3ccccc3s2)cc1 [Compound #10, 1-(benzo[d]thiazol-2-yl)-3-(4-methoxyphenyl)urea]",> 25,15,–,–,–,–,–
–,5,–,–,–,–,–,–,"O=C(Nc1cc(Cl)cc(Cl)c1)Nc1nc2ccc([N+](=O)[O-])cc2s1 [Compound #11, 1-(3,5-dichlorophenyl)-3-(6-nitrobenzo[d]thiazol-2-yl)urea]",2.5,2,5,4,4,2.5,EC50 [15]: 2.5 µM
–,5,–,–,–,–,–,–,"O=C(Nc1ccc(Br)cc1)Nc1nc2ccc([N+](=O)[O-])cc2s1 [Compound #12, 1-(4-bromophenyl)-3-(6-nitrobenzo[d]thiazol-2-yl)urea]",7,7,5,< 2.5,20,5,EC50 [15]: 2.5 µM
–,15,–,–,–,–,–,–,"O=C(Nc1nc2ccc([N+](=O)[O-])cc2s1)Nc1ccccc1Br [Compound #13, 1-(2-bromophenyl)-3-(6-nitrobenzo[d]thiazol-2-yl)urea]",20,25,14,8,> 25,> 25,–
–,4,–,–,–,–,–,–,"O=C(Nc1cccc(Cl)c1)Nc1nc2ccc([N+](=O)[O-])cc2[nH]1 [Compound #14, 1-(3-chlorophenyl)-3-(6-nitro-1H-benzo[d]imidazol-2-yl)urea]",5,3,4,15,25,15,EC50 [15]: 10 µM
–,–,–,–,–,–,–,–,"O=C(Nc1ccc([N+](=O)[O-])cc1O)Nc1ccccc1Br [SB-225002, reference compound]",–,–,–,–,–,–,EC50 [2]: 70 µM; EC50 [5]: > 100 µM; EC50 ([6]; read-out: EC50 (μM) AML OCI-AML3): 90 µM; EC50 [7]: > 100 µM; EC50 [8]: 90 µM; EC50 [9]: > 100 µM; EC50 [10]: > 100 µM
